Test results reported in US12427134B2, “Methods of reducing the risk of cardiovascular events in a subject with atrial fibrillation and/or atrial flutter” (priority 2019, dated 2025).

System: hypertriglyceridemic patients with cardiovascular disease or at high risk for cardiovascular disease
Assay: REDUCE-IT: treatment-emergent adverse events and serious adverse events (safety population)
[1] = patients taking ezetimibe at baseline

## CC/C=C\C/C=C\C/C=C\C/C=C\C/C=C\CCCC(=O)OCC [AMR101, eicosapentaenoic acid ethyl ester]
Safety population, N = 4089
  Study drug-related TEAE leading to study drug withdrawal - Gastroesophageal reflux disease, % patients: (0.1) %
  Study drug-related TEAE leading to study drug withdrawal - Gastroesophageal reflux disease, n patients: 5
  Study drug-related TEAE leading to study drug withdrawal - Gastrointestinal disorders (SOC), % patients: (2.4) %
  Study drug-related TEAE leading to study drug withdrawal - Gastrointestinal disorders (SOC), n patients: 97
  Study drug-related TEAE leading to study drug withdrawal - Hypersensitivity, % patients: (0.1) %
  Study drug-related TEAE leading to study drug withdrawal - Hypersensitivity, n patients: 3
  Study drug-related TEAE leading to study drug withdrawal - Immune system disorders (SOC), % patients: (0.1) %
  Study drug-related TEAE leading to study drug withdrawal - Immune system disorders (SOC), n patients: 4
  Study drug-related TEAE leading to study drug withdrawal - Muscle spasms, % patients: (0.0) %
  Study drug-related TEAE leading to study drug withdrawal - Muscle spasms, n patients: 0
  Study drug-related TEAE leading to study drug withdrawal - Musculoskeletal and connective tissue disorders (SOC), % patients: (0.3) %
  Study drug-related TEAE leading to study drug withdrawal - Musculoskeletal and connective tissue disorders (SOC), n patients: 13
  Study drug-related TEAE leading to study drug withdrawal - Nausea, % patients: (0.4) %
  Study drug-related TEAE leading to study drug withdrawal - Nausea, n patients: 16
  Study drug-related TEAE leading to study drug withdrawal - Pruritus generalized, % patients: (0.1) %
  Study drug-related TEAE leading to study drug withdrawal - Pruritus generalized, n patients: 3
  Study drug-related TEAE leading to study drug withdrawal - Pruritus, % patients: (0.0) %
  Study drug-related TEAE leading to study drug withdrawal - Pruritus, n patients: 1
  Study drug-related TEAE leading to study drug withdrawal - Rash, % patients: (0.1) %
  Study drug-related TEAE leading to study drug withdrawal - Rash, n patients: 3
  Study drug-related TEAE leading to study drug withdrawal - Skin and subcutaneous disorders (SOC), % patients: (0.4) %
  Study drug-related TEAE leading to study drug withdrawal - Skin and subcutaneous disorders (SOC), n patients: 16
  Study drug-related TEAE leading to study drug withdrawal - Skin odor abnormal, % patients: (0.1) %
  Study drug-related TEAE leading to study drug withdrawal - Skin odor abnormal, n patients: 3
  Study drug-related TEAE leading to study drug withdrawal - Vomiting, % patients: (0.1) %
  Study drug-related TEAE leading to study drug withdrawal - Vomiting, n patients: 3
  Study drug-related TEAE: Arthralgia, %: (0.6) %
  Study drug-related TEAE: Diarrhea, %: (2.7) %
  Study drug-related TEAE: Dyspepsia, %: (0.4) %
  Study drug-related TEAE: Eructation, %: (0.9) %
  Study drug-related TEAE: Flatulence, %: (0.8) %
  Study drug-related TEAE: Gastrointestinal disorders, %: (7.4) %
  Study drug-related TEAE: Musculoskeletal and connective tissue disorders, %: (1.4) %
  Study drug-related TEAE: Nausea, %: (0.8) %
  Subjects with at Least One TEAE: 3343 (81.8%) n (%)
  TEAE Leading to Withdrawal of Study Drug, %: (7.9) %
  TEAE: Anemia, %: (4.7) %
  TEAE: Angina pectoris, %: (4.9) %
  TEAE: Arthralgia, %: (7.7) %
  TEAE: Atrial fibrillation, %: (5.3) %
  TEAE: Back pain, %: (8.2) %
  TEAE: Blood and lymphatic system disorders, %: (7.9) %
  TEAE: Bronchitis, %: (7.5) %
  TEAE: Cardiac disorders, %: (22.3) %
  TEAE: Cataract, %: (5.7) %
  TEAE: Chest pain, %: (6.7) %
  TEAE: Constipation, %: (5.4) %
  TEAE: Cough, %: (5.9) %
  TEAE: Diabetes mellitus, %: (4.1) %
  TEAE: Diarrhea, %: (9.0) %
  TEAE: Dizziness, %: (5.7) %
  TEAE: Dyspnea, %: (6.2) %
  TEAE: Edema peripheral, %: (6.5) %
  TEAE: Eye disorders, %: (11.7) %
  TEAE: Fall, %: (3.6) %
  TEAE: Fatigue, %: (5.6) %
  TEAE: Gastroesophageal reflux disease, %: (3.0) %
  TEAE: Gastrointestinal disorders, %: (33.0) %
  TEAE: General disorders and administration site conditions, %: (25.2) %
  TEAE: Gout, %: (4.2) %
  TEAE: Headache, %: (4.2) %
  TEAE: Hypertension, %: (7.8) %
  TEAE: Infections and infestations, %: (44.6) %
  TEAE: Influenza, %: (6.4) %
  TEAE: Injury, poisoning, and procedural complications, %: (18.3) %
  TEAE: Insomnia, %: (3.0) %
  TEAE: Metabolism and nutrition disorders, %: (23.3) %
  TEAE: Muscle spasms, %: (2.5) %
  TEAE: Musculoskeletal and connective tissue disorders, %: (35.9) %
  TEAE: Musculoskeletal pain, %: (4.3) %
  TEAE: Myalgia, %: (3.3) %
  TEAE: Nasopharyngitis, %: (7.7) %
  TEAE: Nausea, %: (4.6) %
  TEAE: Nervous system disorders, %: (24.6) %
  TEAE: Non-cardiac chest pain, %: (3.9) %
  TEAE: Osteoarthritis, %: (5.9) %
  TEAE: Pain in extremity, %: (5.7) %
  TEAE: Pneumonia, %: (6.4) %
  TEAE: Psychiatric disorders, %: (9.1) %
  TEAE: Respiratory, thoracic, and mediastinal disorders, %: (24.2) %
  TEAE: Sinusitis, %: (4.1) %
  TEAE: Type 2 diabetes mellitus, %: (3.6) %
  TEAE: Vascular disorders, %: (17.3) %
  Ventricular extrasystoles TEAE, Event Rate: 0.7%
  Ventricular extrasystoles TEAE, Number of Subjects: 27
  Ventricular fibrillation TEAE, Event Rate: 0.0%
  Ventricular fibrillation TEAE, Number of Subjects: 0
  Ventricular tachycardia TEAE, Event Rate: 0.3%
  Ventricular tachycardia TEAE, Number of Subjects: 12
[1]
  TEAE class GI disorders, patients: 37.4%
  TEAE class general disorders and administration site conditions, patients: 26.3%
  TEAE class musculoskeletal and connective tissue disorders, patients: 41.2%
  TEAE class nervous system disorders, patients: 23.7%
  TEAE class respiratory, thoracic, and mediastinal disorders, patients: 27.5%
